Experimental data: ChEMBL document CHEMBL5465560, “Selectivity Literature for EUbOPEN Chemogenomic Library” (2024)

Key:
[1] = system: Serine/threonine-protein kinase B-raf (Homo sapiens), P15056 [V600E]; conditions: at 10 µM
[2] = target: T1, Cyclin-dependent kinase-like 5 (Homo sapiens) (UniProt O76039); experiment: Selectivity interaction (KinomeScan (DiscoverX)) EUB0000229b CDKL5; conditions: at 10 µM
T1 sequence (whole entry): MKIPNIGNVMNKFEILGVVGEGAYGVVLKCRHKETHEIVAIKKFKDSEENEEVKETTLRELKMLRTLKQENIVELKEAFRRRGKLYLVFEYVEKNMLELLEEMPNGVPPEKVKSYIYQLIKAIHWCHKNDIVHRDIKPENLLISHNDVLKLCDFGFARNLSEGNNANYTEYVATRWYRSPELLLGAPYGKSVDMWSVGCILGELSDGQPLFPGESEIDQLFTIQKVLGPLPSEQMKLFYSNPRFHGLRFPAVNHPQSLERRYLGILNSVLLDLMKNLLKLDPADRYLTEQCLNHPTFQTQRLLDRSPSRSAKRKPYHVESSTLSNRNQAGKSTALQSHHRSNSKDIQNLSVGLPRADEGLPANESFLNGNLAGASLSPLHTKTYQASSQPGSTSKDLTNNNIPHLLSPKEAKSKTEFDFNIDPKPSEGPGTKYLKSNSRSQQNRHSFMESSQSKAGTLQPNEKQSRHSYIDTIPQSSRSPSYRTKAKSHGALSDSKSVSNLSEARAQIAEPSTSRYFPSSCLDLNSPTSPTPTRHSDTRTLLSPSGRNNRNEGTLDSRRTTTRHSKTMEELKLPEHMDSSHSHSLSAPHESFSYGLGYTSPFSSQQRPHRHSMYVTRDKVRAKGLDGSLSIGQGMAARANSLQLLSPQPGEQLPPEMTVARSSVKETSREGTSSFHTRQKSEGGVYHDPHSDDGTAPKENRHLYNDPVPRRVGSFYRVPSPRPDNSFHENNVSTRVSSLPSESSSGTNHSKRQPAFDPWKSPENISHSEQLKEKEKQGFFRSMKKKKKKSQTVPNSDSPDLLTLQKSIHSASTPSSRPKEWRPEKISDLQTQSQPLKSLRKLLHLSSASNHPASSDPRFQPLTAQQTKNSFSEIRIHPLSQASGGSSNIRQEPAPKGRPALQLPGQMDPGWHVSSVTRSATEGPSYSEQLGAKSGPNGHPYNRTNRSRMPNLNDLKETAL

[3] = target: T2, Serine/threonine-protein kinase D2 (Homo sapiens) (UniProt Q9BZL6); experiment: Selectivity interaction (Upstate Kinase Profiler service (Millipore)) EUB0000056c PRKD2; conditions: at 1 µM
T2 sequence (whole entry): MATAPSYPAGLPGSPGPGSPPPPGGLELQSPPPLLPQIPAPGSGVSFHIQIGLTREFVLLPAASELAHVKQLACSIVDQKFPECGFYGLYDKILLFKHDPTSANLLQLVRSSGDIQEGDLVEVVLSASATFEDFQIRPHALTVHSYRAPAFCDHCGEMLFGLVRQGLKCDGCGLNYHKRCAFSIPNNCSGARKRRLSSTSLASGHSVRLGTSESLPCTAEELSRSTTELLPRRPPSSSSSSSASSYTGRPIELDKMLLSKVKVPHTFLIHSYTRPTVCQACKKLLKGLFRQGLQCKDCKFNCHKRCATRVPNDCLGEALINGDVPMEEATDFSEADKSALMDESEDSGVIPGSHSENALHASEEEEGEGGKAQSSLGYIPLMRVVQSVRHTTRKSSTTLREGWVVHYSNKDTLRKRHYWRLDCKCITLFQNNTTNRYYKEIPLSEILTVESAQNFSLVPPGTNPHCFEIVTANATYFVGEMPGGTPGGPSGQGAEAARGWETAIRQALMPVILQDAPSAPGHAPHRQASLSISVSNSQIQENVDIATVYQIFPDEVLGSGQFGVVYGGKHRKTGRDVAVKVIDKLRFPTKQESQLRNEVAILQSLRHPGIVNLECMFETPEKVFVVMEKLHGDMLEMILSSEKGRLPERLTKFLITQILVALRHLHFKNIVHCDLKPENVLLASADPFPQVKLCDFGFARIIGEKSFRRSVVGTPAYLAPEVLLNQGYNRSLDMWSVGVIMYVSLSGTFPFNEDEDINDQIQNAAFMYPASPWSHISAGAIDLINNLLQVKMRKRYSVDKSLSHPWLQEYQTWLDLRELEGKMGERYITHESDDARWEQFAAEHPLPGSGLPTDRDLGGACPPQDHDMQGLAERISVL

[4] = target: T3, Serine/threonine-protein kinase 3 (Homo sapiens) (UniProt Q13188); experiment: Selectivity interaction (KinomeScan (DiscoverX)) EUB0000666a STK3; conditions: at 10 µM
T3 sequence (whole entry): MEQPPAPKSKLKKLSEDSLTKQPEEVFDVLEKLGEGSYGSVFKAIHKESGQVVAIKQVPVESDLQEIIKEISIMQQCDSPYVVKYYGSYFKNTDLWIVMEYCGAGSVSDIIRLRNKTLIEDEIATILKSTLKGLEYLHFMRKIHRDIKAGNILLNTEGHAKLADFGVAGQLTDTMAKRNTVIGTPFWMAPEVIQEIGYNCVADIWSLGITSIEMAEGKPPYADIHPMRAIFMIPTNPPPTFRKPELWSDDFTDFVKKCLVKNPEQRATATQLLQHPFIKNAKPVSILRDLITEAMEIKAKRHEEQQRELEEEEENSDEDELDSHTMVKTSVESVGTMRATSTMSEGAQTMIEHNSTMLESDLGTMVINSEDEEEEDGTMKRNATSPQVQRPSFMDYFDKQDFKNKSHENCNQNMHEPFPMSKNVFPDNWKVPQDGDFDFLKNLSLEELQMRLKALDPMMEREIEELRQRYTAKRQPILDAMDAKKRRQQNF

[5] = target: Serine/threonine-protein kinase PAK 2 (Homo sapiens) (UniProt Q13177); experiment: Selectivity interaction (KinomeScan (DiscoverX)) EUB0000666a PAK2; conditions: at 10 µM
Serine/threonine-protein kinase PAK 2 (Homo sapiens), sequence (Q13177 whole entry): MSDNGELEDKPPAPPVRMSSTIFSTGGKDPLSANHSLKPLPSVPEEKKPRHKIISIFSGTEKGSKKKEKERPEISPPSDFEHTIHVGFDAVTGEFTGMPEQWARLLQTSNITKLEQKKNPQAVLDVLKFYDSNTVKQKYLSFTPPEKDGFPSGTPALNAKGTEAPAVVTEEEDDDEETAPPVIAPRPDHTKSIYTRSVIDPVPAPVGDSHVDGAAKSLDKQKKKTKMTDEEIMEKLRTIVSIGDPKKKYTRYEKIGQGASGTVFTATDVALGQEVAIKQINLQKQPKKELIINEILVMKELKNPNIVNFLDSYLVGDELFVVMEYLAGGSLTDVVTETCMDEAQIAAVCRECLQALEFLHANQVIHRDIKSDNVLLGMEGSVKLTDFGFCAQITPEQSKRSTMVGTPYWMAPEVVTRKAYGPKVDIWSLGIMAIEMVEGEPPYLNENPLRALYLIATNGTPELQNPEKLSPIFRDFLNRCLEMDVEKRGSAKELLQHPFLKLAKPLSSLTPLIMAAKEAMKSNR

[6] = target: Tyrosine-protein kinase Lyn (Homo sapiens, UniProt P07948); experiment: Selectivity interaction (ActivX KiNativ screen (kinase selectivity in THP-1 cell lysates)) EUB0000639a LYN; assay type: subcellular; conditions: lysate, at 5 µM
Tyrosine-protein kinase Lyn, sequence (P07948 2-512 limits assumed): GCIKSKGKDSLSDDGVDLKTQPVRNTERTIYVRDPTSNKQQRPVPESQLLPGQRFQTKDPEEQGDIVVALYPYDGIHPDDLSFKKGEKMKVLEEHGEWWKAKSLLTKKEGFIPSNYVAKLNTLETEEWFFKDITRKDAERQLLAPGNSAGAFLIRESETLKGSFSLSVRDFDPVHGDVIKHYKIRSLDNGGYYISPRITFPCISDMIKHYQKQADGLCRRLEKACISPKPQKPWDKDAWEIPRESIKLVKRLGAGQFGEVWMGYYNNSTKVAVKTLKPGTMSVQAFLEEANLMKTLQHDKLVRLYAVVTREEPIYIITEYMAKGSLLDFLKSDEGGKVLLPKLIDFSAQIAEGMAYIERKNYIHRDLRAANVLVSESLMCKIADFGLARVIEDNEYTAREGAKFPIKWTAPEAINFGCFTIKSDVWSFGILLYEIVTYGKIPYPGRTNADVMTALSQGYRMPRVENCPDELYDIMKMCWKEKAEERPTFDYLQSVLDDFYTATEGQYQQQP

Adenosine receptor A2a = Adenosine receptor A2a (Homo sapiens, UniProt P29274); experiment: Selectivity interaction (Panel of non-epigenetic targets (kinases, GPCRs, ion channels, and transporters, Eurofins) ) EUB0000271b ADORA2A; conditions: at 1 µM
Adenosine receptor A2a, sequence (P29274 whole entry): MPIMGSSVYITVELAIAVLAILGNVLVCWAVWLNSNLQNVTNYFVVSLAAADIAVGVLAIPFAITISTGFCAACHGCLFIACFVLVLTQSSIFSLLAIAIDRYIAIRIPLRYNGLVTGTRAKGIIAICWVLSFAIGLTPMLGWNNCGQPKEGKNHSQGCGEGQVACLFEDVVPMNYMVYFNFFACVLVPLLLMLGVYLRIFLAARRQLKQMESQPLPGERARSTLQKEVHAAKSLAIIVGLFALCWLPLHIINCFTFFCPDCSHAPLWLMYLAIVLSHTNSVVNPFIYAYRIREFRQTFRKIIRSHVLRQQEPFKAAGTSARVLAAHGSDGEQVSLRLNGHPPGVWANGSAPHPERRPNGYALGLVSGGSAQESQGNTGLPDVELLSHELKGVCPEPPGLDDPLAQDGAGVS

[7] = target: Cyclin-dependent kinase 13 (Homo sapiens, UniProt Q14004); experiment: Selectivity interaction (KinomeScan (DiscoverX)) EUB0000045b CDK13
Cyclin-dependent kinase 13, sequence (Q14004 whole entry, looked up): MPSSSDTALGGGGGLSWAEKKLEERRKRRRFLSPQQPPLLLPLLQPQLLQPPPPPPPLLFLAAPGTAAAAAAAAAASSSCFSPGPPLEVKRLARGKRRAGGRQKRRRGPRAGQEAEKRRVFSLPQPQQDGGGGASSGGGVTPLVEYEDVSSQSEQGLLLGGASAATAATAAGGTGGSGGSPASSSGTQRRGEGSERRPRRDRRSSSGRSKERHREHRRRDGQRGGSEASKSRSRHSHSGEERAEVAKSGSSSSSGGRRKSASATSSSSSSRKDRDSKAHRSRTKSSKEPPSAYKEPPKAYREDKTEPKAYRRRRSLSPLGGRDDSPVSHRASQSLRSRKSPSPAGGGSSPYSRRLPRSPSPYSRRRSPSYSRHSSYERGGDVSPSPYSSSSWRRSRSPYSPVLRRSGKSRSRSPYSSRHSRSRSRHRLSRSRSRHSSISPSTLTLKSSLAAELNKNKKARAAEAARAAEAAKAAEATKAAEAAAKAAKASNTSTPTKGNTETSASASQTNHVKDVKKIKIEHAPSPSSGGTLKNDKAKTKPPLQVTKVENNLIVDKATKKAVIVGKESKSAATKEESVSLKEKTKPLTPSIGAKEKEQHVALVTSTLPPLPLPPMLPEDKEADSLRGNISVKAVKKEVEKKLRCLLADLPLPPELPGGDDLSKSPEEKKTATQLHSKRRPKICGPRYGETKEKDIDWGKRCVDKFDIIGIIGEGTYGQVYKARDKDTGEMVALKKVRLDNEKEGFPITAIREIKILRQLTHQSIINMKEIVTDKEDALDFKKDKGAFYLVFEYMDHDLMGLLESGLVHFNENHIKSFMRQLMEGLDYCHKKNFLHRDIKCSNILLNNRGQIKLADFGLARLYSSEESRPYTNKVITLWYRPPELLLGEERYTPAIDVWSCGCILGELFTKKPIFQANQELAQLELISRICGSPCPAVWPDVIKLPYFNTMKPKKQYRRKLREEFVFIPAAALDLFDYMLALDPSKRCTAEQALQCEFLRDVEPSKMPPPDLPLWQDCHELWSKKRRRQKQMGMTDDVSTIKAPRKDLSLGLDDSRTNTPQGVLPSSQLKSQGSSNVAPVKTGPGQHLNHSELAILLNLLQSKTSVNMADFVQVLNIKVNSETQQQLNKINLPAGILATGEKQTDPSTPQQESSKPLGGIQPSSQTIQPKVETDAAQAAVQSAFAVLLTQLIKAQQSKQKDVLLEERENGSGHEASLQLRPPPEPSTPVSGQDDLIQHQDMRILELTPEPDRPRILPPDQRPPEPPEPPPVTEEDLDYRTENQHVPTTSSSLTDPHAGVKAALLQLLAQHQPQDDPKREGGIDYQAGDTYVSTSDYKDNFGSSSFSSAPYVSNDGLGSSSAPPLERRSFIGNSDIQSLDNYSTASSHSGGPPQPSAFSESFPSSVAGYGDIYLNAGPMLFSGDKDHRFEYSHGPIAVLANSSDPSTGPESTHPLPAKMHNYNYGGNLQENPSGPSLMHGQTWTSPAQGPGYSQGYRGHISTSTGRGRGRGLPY

Serine/threonine-protein kinase B-raf (Homo sapiens), P15056 [V600E], sequence (P15056 whole entry V600E): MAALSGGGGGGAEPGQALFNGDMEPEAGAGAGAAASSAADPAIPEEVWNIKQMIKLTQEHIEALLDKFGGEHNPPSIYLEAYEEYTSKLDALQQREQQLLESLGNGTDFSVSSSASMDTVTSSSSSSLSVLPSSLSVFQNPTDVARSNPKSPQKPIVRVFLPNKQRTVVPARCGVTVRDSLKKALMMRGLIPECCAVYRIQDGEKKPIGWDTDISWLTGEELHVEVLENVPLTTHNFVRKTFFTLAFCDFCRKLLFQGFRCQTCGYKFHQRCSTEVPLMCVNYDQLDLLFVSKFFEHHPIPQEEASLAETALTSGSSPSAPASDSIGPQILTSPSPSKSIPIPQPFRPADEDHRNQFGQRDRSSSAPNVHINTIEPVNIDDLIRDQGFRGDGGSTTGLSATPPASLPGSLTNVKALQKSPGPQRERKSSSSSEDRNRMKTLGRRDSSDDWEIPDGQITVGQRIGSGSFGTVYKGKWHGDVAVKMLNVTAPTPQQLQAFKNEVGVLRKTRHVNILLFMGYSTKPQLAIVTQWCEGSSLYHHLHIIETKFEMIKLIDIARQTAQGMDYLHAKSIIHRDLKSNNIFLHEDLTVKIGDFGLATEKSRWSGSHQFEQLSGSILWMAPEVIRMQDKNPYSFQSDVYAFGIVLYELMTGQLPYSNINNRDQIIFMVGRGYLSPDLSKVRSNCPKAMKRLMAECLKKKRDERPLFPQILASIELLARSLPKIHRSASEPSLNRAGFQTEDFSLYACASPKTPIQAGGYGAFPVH

CCN(CC)CCCCNc1ncc2cc(-c3cc(OC)cc(OC)c3)c(NC(=O)NC(C)(C)C)nc2n1
% of control [1]: 100%

COc1cc(N(C)c2ccnc3ccc(C(F)(F)F)cc23)cc(OC)c1OC
% binding [2]: 86%

Cc1ccc(-c2ccc3c(ccc4sc5c(c43)NC[C@@H](C)NC5=O)n2)cn1
% of inhibition [3]: -9%

O=C(NOC[C@H](O)CO)c1ccc(F)c(F)c1Nc1ccc(I)cc1F
% of control [4]: 90% | % of control [5]: 93%

CC[C@@H]1[C@H](F)C(=O)N[C@@H]1COc1nccc2cc(C(N)=O)c(OC)cc12 [ZIMLOVISERTIB]
% of inhibition [6]: -9.2%

Cc1cc(C)cc([C@@H]2c3cc(C)ccc3NC(=O)CN2C(=O)c2ccc(Br)s2)c1
% of inhibition (Adenosine receptor A2a): 2%

C=CC(=O)Nc1cc(-n2c(=O)ccc3cnc4ccc(-c5ccc(NS(C)(=O)=O)cc5)cc4c32)ccc1C
% of control ([7]; at 1 µM): 100% | % of control ([7]; at 10 µM): 100%
